Values quoted from earlier work, collected in paper PMC12833858 (Journal of Medicinal Chemistry, 2026).

How the values were obtained:
Aurora A [1] = target: T1, Aurora A (Homo sapiens, UniProt O14965); design: expressed in transfected cells; details: reported value, HiBiT assay in MV4-11 pediatric leukemia cells
T1 sequence (O14965 1-403): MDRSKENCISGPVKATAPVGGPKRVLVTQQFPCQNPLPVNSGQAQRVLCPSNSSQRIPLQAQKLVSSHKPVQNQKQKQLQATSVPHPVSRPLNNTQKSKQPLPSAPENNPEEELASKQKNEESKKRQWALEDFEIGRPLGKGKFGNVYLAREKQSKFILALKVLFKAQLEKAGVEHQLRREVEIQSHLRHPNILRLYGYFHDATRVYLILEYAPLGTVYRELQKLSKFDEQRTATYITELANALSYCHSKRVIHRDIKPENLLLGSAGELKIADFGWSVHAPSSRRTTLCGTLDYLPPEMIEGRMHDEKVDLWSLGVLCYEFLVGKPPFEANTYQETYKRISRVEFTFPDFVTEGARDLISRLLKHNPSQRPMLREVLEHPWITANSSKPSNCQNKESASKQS

Aurora A [2] = target: T1, Aurora A; design: method as in Adhikari et al.; details: isothermal titration calorimetry, n = 4; ref Adhikari et al.; read-out: KD Aurora A (ITC)

COc1cc(Nc2ncc3c(n2)-c2ccc(Cl)cc2C(c2c(F)cccc2OC)=NC3)ccc1C(=O)NCCOCCOCCNC(=O)COc1cccc2c1C(=O)N(C1CCC(=O)NC1=O)C2=O (centres unmarked) [JB170]
DC50 (Aurora A [1]): 28 nM | Kd (Aurora A [2]): 375 ± 22 nM
